Test results from US10485235B2, “Aryloxypyrimidinyl ethers as herbicides” (FMC Corporation, priority 2015, dated 2019).

What was measured:
Type in all cases: in vivo
[1] = tested on: foxtail, giant (giant foxtail, Setaria faberii); test: Test A postemergence, giant foxtail
Procedure, shortened: (§1)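 Plants grown in pots of loam blended with sand were treated either before emergence, via directed soil spray, or after emergence at the one- to two-leaf stage. Following about 10 days in the greenhouse, each treatment was visually compared with untreated controls and rated from 0 (no effect) to 100 (complete control).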

[2] = tested on: ryegrass, Italian (Italian ryegrass, Lolium multiflorum); test: Test A preemergence, Italian ryegrass; conditions: Preemergence, 0 to 100 scale (0 no effect, 100 complete control)
Procedure, shortened: as §1

corn (Zea mays) = test: Test A postemergence, corn
Procedure, shortened: as §1

[3] = tested on: ragweed (common ragweed, Ambrosia elatior); test: Test A postemergence, ragweed
Procedure, shortened: as §1

[4] = tested on: pigweed (Amaranthus retroflexus); test: Test A preemergence, pigweed; conditions: Preemergence, 0 to 100 scale (0 no effect, 100 complete control)
Procedure, shortened: as §1

[5] = tested on: galium (catchweed bedstraw, Galium aparine); test: Test A postemergence, galium
Procedure, shortened: as §1

rice (Oryza sativa) = test: Test B flooded paddy test, rice; conditions: 250 g ai/ha, Flood; visual rating after 13 to 15 days; scale 0 to 100, 0 is no effect, 100 is complete control
Procedure, shortened: (§2)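 Visual ratings, 0 = no effect to 100 = complete control, versus controls after 13 to 15 days in greenhouse. Test compounds were added to paddy water kept 3 cm over the soil surface, on plants at 2-leaf stage.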

[6] = tested on: wheat (Triticum aestivum); test: Test A postemergence, wheat
Procedure, shortened: as §1

[7] = tested on: barnyardgrass (Echinochloa crus-galli); test: Test A preemergence, barnyardgrass; conditions: Preemergence, 0 to 100 scale (0 no effect, 100 complete control)
Procedure, shortened: as §1

[8] = tested on: blackgrass (Alopecurus myosuroides); test: Test A postemergence, blackgrass
Procedure, shortened: as §1

kochia (Kochia scoparia) [9] = test: Test A postemergence, kochia
Procedure, shortened: as §1

[10] = tested on: barnyardgrass (Echinochloa crus-galli); test: Test B flooded paddy test, barnyardgrass; conditions: 250 g ai/ha, Flood; visual rating after 13 to 15 days; scale 0 to 100, 0 is no effect, 100 is complete control
Procedure, shortened: as §2

[11] = tested on: pigweed (Amaranthus retroflexus); test: Test A postemergence, pigweed
Procedure, shortened: as §1

[12] = tested on: ducksalad (Heteranthera limosa); test: Test B flooded paddy test, ducksalad; conditions: 250 g ai/ha, Flood; visual rating after 13 to 15 days; scale 0 to 100, 0 is no effect, 100 is complete control
Procedure, shortened: as §2

[13] = tested on: sedge, umbrella (small-flower umbrella sedge, Cyperus difformis); test: Test B flooded paddy test, umbrella sedge; conditions: 250 g ai/ha, Flood; visual rating after 13 to 15 days; scale 0 to 100, 0 is no effect, 100 is complete control
Procedure, shortened: as §2

[14] = tested on: barnyardgrass (Echinochloa crus-galli); test: Test A postemergence, barnyardgrass
Procedure, shortened: as §1

kochia (Kochia scoparia) [15] = test: Test A preemergence, kochia; conditions: Preemergence, 0 to 100 scale (0 no effect, 100 complete control)
Procedure, shortened: as §1

[16] = tested on: ragweed (common ragweed, Ambrosia elatior); test: Test A preemergence, ragweed; conditions: Preemergence, 0 to 100 scale (0 no effect, 100 complete control)
Procedure, shortened: as §1

[17] = tested on: foxtail, giant (giant foxtail, Setaria faberii); test: Test A preemergence, giant foxtail; conditions: Preemergence, 0 to 100 scale (0 no effect, 100 complete control)
Procedure, shortened: as §1

[18] = tested on: ryegrass, Italian (Italian ryegrass, Lolium multiflorum); test: Test A postemergence, Italian ryegrass
Procedure, shortened: as §1

[19] = 31 g ai/ha, postemergence, 0 to 100 scale, 0 is no effect, 100 is complete control, approximately 10 days
[20] = 125 g ai/ha, postemergence, 0 to 100 scale, 0 is no effect, 100 is complete control, approximately 10 days
[21] = Postemergence, 31 g ai/ha, 0 to 100 scale (0 no effect, 100 complete control)

Structure (SMILES) | Plant response rating, Foxtail, Giant [1, 20] | Plant response rating, Ryegrass, Italian ([2]; 31 g ai/ha) | Plant response rating, Ryegrass, Italian ([2]; 125 g ai/ha) | Plant response rating, Corn (corn (Zea mays); [20]) | Plant response rating, Ragweed [3, 20] | Plant response rating, Pigweed ([4]; 31 g ai/ha) | Plant response rating, Pigweed ([4]; 125 g ai/ha) | Plant response rating, Galium [5, 20] | Plant response rating, Rice (rice (Oryza sativa)) | Plant response rating, Wheat [6, 20] | Plant response rating, Barnyardgrass ([7]; 31 g ai/ha) | Plant response rating, Barnyardgrass ([7]; 125 g ai/ha) | Plant response rating, Blackgrass [8, 20] | Plant response rating, Kochia (kochia (Kochia scoparia) [9]; [20]) | Plant response rating, Barnyardgrass [10] | Plant response rating, Pigweed [11, 20] | Plant response rating, Ducksalad [12] | Plant response rating, Sedge, Umbrella [13] | Plant response rating, Barnyardgrass [14, 20] | Plant response rating, Kochia (kochia (Kochia scoparia) [15]; 31 g ai/ha) | also measured
N#Cc1cccc(Oc2ncc(Cl)cn2)c1OCC(=O)CCC(F)(F)F [Compound 62] | 0 | 0 | 0 | 0 | 0 | 0 | 0 | 0 | 0 | 0 | 0 | 0 | 0 | 0 | 0 | 0 | 0 | 0 | 0 | 0 | Plant response rating, Foxtail, Giant [1, 19]: 0; Plant response rating, Corn (corn (Zea mays); [19]): 0; Plant response rating, Ragweed [3, 19]: 0; Plant response rating, Galium [5, 19]: 0; Plant response rating, Wheat [6, 19]: 0; Plant response rating, Blackgrass [8, 19]: 0; Plant response rating, Kochia (kochia (Kochia scoparia) [9]; [19]): 0; Plant response rating, Pigweed [11, 19]: 0; Plant response rating, Barnyardgrass [14, 19]: 0; Plant response rating, Kochia (kochia (Kochia scoparia) [15]; 125 g ai/ha): 0; Plant response rating, Ragweed ([16]; 31 g ai/ha): 0; Plant response rating, Ragweed ([16]; 125 g ai/ha): 0; Plant response rating, Foxtail, Giant ([17]; 31 g ai/ha): 0; Plant response rating, Foxtail, Giant ([17]; 125 g ai/ha): 0; Plant response rating, Ryegrass, Italian [18, 19]: 0; Plant response rating, Ryegrass, Italian [18, 20]: 0
Cc1cccc(Oc2ncc(Cl)cn2)c1OCCC(F)(F)F [Compound 64] | 10 | 0 | 0 | 10 | 0 | 0 | 100 | 0 | 20 | 0 | 10 | 60 | 10 | 20 | 0 | 30 | 85 | 90 | 10 | 0 | Plant response rating, Foxtail, Giant [1, 19]: 0; Plant response rating, Corn (corn (Zea mays); [19]): 0; Plant response rating, Ragweed [3, 19]: 0; Plant response rating, Galium [5, 19]: 0; Plant response rating, Wheat [6, 19]: 0; Plant response rating, Blackgrass [8, 19]: 0; Plant response rating, Kochia (kochia (Kochia scoparia) [9]; [19]): 10; Plant response rating, Pigweed [11, 19]: 20; Plant response rating, Barnyardgrass [14, 19]: 0; Plant response rating, Kochia (kochia (Kochia scoparia) [15]; 125 g ai/ha): 0; Plant response rating, Ragweed ([16]; 31 g ai/ha): 0; Plant response rating, Ragweed ([16]; 125 g ai/ha): 0; Plant response rating, Foxtail, Giant ([17]; 31 g ai/ha): 0; Plant response rating, Foxtail, Giant ([17]; 125 g ai/ha): 20; Plant response rating, Ryegrass, Italian [18, 19]: 0; Plant response rating, Ryegrass, Italian [18, 20]: 0
FCCCOc1c(I)cccc1Oc1ncc(Cl)cn1 [Compound 66] | 30 | 0 | 10 | 30 | 0 | 70 | 100 | 90 | 20 | 0 | 20 | 70 | 30 | 100 | 0 | 100 | 100 | 100 | 50 | 0 | Plant response rating, Foxtail, Giant [1, 19]: 10; Plant response rating, Corn (corn (Zea mays); [19]): 0; Plant response rating, Ragweed [3, 19]: 0; Plant response rating, Galium [5, 19]: 40; Plant response rating, Wheat [6, 19]: 0; Plant response rating, Blackgrass [8, 19]: 10; Plant response rating, Kochia (kochia (Kochia scoparia) [9]; [19]): 90; Plant response rating, Pigweed [11, 19]: 90; Plant response rating, Barnyardgrass [14, 19]: 0; Plant response rating, Kochia (kochia (Kochia scoparia) [15]; 125 g ai/ha): 60; Plant response rating, Ragweed ([16]; 31 g ai/ha): 0; Plant response rating, Ragweed ([16]; 125 g ai/ha): 0; Plant response rating, Foxtail, Giant ([17]; 31 g ai/ha): 50; Plant response rating, Foxtail, Giant ([17]; 125 g ai/ha): 100; Plant response rating, Ryegrass, Italian [18, 19]: 0; Plant response rating, Ryegrass, Italian [18, 20]: 20
N#CCCCOc1c(I)cccc1Oc1ncc(Cl)cn1 [Compound 67] | 30 | 0 | 20 | 20 | 10 | 50 | 100 | 50 | 10 | 0 | 0 | 30 | 30 | 100 | 0 | 100 | 100 | 95 | 30 | 20 | Plant response rating, Foxtail, Giant [1, 21]: 10; Plant response rating, Corn (corn (Zea mays); [21]): 10; Plant response rating, Ragweed [3, 21]: 0; Plant response rating, Galium [5, 21]: 30; Plant response rating, Wheat [6, 21]: 0; Plant response rating, Blackgrass [8, 21]: 0; Plant response rating, Kochia (kochia (Kochia scoparia) [9]; [21]): 60; Plant response rating, Pigweed [11, 21]: 60; Plant response rating, Barnyardgrass [14, 21]: 0; Plant response rating, Kochia (kochia (Kochia scoparia) [15]; 125 g ai/ha): 80; Plant response rating, Ragweed ([16]; 31 g ai/ha): 0; Plant response rating, Ragweed ([16]; 125 g ai/ha): 0; Plant response rating, Foxtail, Giant ([17]; 31 g ai/ha): 60; Plant response rating, Foxtail, Giant ([17]; 125 g ai/ha): 100; Plant response rating, Ryegrass, Italian [18, 20]: 10; Plant response rating, Ryegrass, Italian [18, 21]: 0
Cl/C=C/COc1c(I)cccc1Oc1ncc(Cl)cn1 [Compound 68] | 80 | 0 | 20 | 30 | 20 | 0 | 100 | 60 | 10 | 0 | 70 | 70 | 60 | 100 | 40 | 100 | 100 | 100 | 100 | 0 | Plant response rating, Foxtail, Giant [1, 21]: 30; Plant response rating, Corn (corn (Zea mays); [21]): 20; Plant response rating, Ragweed [3, 21]: 0; Plant response rating, Galium [5, 21]: 50; Plant response rating, Wheat [6, 21]: 0; Plant response rating, Blackgrass [8, 21]: 20; Plant response rating, Kochia (kochia (Kochia scoparia) [9]; [21]): 90; Plant response rating, Pigweed [11, 21]: 80; Plant response rating, Barnyardgrass [14, 21]: 60; Plant response rating, Kochia (kochia (Kochia scoparia) [15]; 125 g ai/ha): 30; Plant response rating, Ragweed ([16]; 31 g ai/ha): 0; Plant response rating, Ragweed ([16]; 125 g ai/ha): 0; Plant response rating, Foxtail, Giant ([17]; 31 g ai/ha): 70; Plant response rating, Foxtail, Giant ([17]; 125 g ai/ha): 100; Plant response rating, Ryegrass, Italian [18, 20]: 30; Plant response rating, Ryegrass, Italian [18, 21]: 0
